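Test compounds were applied to cells in 96-well plates for 48 hours at 5 doses. Here, GI50 denotes the concentration required for 50% inhibition of growth. TGI marks complete inhibition of growth.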
How the values were obtained:
Test in all cases: growth of human tumour cells (NCI), 48 h
M14 melanoma = tested on: M14 melanoma
ACHN renal = tested on: ACHN renal
HOP-62 NSCLC = tested on: HOP-62 NSCLC
K-562 leukemia = tested on: K-562 leukemia
MCF7 breast = tested on: MCF7 breast
SNB-19 CNS = tested on: SNB-19 CNS
CCRF-CEM leukemia = tested on: CCRF-CEM leukemia
NCI/ADR-RES ovarian = tested on: NCI/ADR-RES ovarian
EKVX NSCLC = tested on: EKVX NSCLC
SF-268 CNS = tested on: SF-268 CNS

| SMILES | TGI (M14 melanoma) | TGI (ACHN renal) | TGI (HOP-62 NSCLC) | TGI (K-562 leukemia) | TGI (MCF7 breast) | TGI (SNB-19 CNS) | TGI (CCRF-CEM leukemia) | TGI (NCI/ADR-RES ovarian) | TGI (EKVX NSCLC) | TGI (SF-268 CNS) | GI50 (M14 melanoma) | GI50 (ACHN renal) | GI50 (HOP-62 NSCLC) | GI50 (K-562 leukemia) | GI50 (MCF7 breast) | GI50 (SNB-19 CNS) | GI50 (CCRF-CEM leukemia) | GI50 (NCI/ADR-RES ovarian) | GI50 (EKVX NSCLC) | GI50 (SF-268 CNS) |
| --- | --- | --- | --- | --- | --- | --- | --- | --- | --- | --- | --- | --- | --- | --- | --- | --- | --- | --- | --- | --- |
| NC(Cc1c[nH]c2ccc([N+](=O)[O-])cc12)C(=O)O (configuration not stated) | > 100 µM | > 100 µM | > 100 µM | > 100 µM | > 100 µM | > 100 µM | > 100 µM | > 100 µM | > 100 µM | > 100 µM | – | – | – | – | – | – | – | – | – | – |
| C#C[C@@]1(O)[C@@H](CO)O[C@@H](n2cc(C(F)(F)F)c3c(N)ncnc32)[C@@H]1O | 3.56 µM | > 100 µM | > 100 µM | 0.909 µM | – | > 100 µM | > 37.2 µM | > 24.7 µM | > 25.9 µM | > 22.9 µM | 0.724 µM | 0.831 µM | 1.75 µM | 0.291 µM | 0.0711 µM | 1.53 µM | 0.487 µM | 0.487 µM | 1.62 µM | 1.55 µM |
| O=C(Nc1cc(Cl)ccc1O)c1cccc(Nc2ccnc(C(F)(F)F)c2)c1 | 18.3 µM | 81.2 µM | 23.5 µM | 12.4 µM | 17.9 µM | 13.8 µM | 6.8 µM | 14.1 µM | 10.7 µM | 22.8 µM | 3.85 µM | 2.13 µM | 4.4 µM | 0.713 µM | 2 µM | 2.42 µM | 1.93 µM | 2.67 µM | 2.43 µM | 7.35 µM |
| O=C(Nc1ccccc1)OC1OC(COC(=O)c2ccccc2)C(OC(=O)c2ccccc2)C1OS(=O)(=O)c1ccc([N+](=O)[O-])cc1 (configuration not stated) | > 100 µM | > 100 µM | > 100 µM | > 100 µM | > 100 µM | > 100 µM | > 100 µM | > 100 µM | > 100 µM | > 100 µM | – | – | – | – | – | – | – | – | – | – |
| Fc1ccc(-c2nn3ccccc3c2-c2ccncc2)cc1 | > 25 µM | > 25 µM | > 25 µM | > 25 µM | > 25 µM | > 25 µM | > 25 µM | > 25 µM | > 25 µM | > 25 µM | > 25 µM | 12.1 µM | > 25 µM | > 25 µM | > 23.1 µM | > 25 µM | > 25 µM | > 25 µM | > 20.2 µM | > 25 µM |
| COc1ccccc1/C=C\C(=O)C1COCN1 (configuration not stated) | > 100 µM | 26.3 µM | 57.4 µM | > 100 µM | 36.8 µM | 33.9 µM | > 100 µM | 52.3 µM | 42.6 µM | 64.4 µM | – | – | – | – | – | – | – | – | – | – |
| CCOc1ccc(C(C[N+](=O)[O-])Sc2ccccc2N)cc1 (configuration not stated) | 19.5 µM | 23.1 µM | 32.3 µM | 11.9 µM | 6.04 µM | 21.2 µM | 18.9 µM | 28.1 µM | 30 µM | 18.3 µM | 6.6 µM | 11.1 µM | 18.3 µM | 2.97 µM | 1.71 µM | 9.22 µM | 3.67 µM | 14.3 µM | 14.8 µM | 4.76 µM |
| C#CC1(O)C(COP(=O)(O)OCC2OC(n3cc(F)c(=O)[nH]c3=O)CC2O)OC(n2ccc(N)nc2=O)C1O (configuration not stated) | 0.74 µM | > 100 µM | 1.28 µM | > 100 µM | > 100 µM | > 100 µM | – | 16 µM | > 29.8 µM | 5.81 µM | < 0.0201 µM | 0.0469 µM | < 0.0328 µM | < 0.01 µM | < 0.01 µM | – | < 0.01 µM | < 0.0115 µM | 0.529 µM | < 0.01 µM |
| COc1ccc2c(c1)CCc1cc(OC)ccc1/[N+]([O-])=[N+]\2[O-] | > 46.4 µM | 26.3 µM | 52.8 µM | > 72.1 µM | 26.7 µM | 39 µM | 5.74 µM | > 62 µM | 42.5 µM | 32.9 µM | – | – | – | – | – | – | – | – | – | – |
| Oc1[nH]c2ccccc2c1/C=c1/ccc2c(c1)N=C(c1ccc(C(F)(F)F)cc1)N=2 | 9.04 µM | 17.4 µM | 15.6 µM | 3.46 µM | 12.9 µM | 21.1 µM | 5.05 µM | 13.1 µM | 16.9 µM | 11.9 µM | 2.05 µM | 3.24 µM | 4.94 µM | 1.41 µM | 2.98 µM | 5.38 µM | 1.65 µM | 3.98 µM | 4.34 µM | 3.46 µM |
| COc1ccc(C(=O)c2cc3c(N)c(C(=O)Nc4cccc(Br)c4C)sc3nc2C)cc1 | > 100 µM | > 100 µM | > 100 µM | > 100 µM | > 100 µM | > 100 µM | > 100 µM | > 100 µM | > 100 µM | > 100 µM | 0.0267 µM | 0.0693 µM | 0.0729 µM | 0.0375 µM | 0.0396 µM | 0.0541 µM | 0.0409 µM | 0.0402 µM | 0.0954 µM | 0.173 µM |
